Values quoted from earlier work, collected in patent US20110015182A1, “NOVEL CARBAMATE AMINO ACID AND PEPTIDE PRODRUGS OF OPIOIDS AND USES THEREOF” (priority 2009, published 2011).

What was measured:
[1] = concurrent oral administration with various opioids; Linn and Steinbrook (2007)
[2] = Norbury et al. (1983)

C[C@H]1CN(C[C@H](Cc2ccccc2)C(=O)NCC(=O)O)CC[C@@]1(C)c1cccc(O)c1 [alvimopan]
adverse GI effects of opioids (constipation, nausea and vomiting) [1]: markedly reduce

CCC1(c2cccc(O)c2)CCCCN(C)C1 (centres unmarked) [meptazinol]
range of observed oral bioavailabilities [2]: 2-20%
